Results reported in publication PMC12150326 (The Journal of Organic Chemistry, 2025).

Tests used:
Format in all cases: cell-based, human
NCI 60 cell lines = system: NCI 60 cell lines
Procedure: (§1) (aR)-6, (aS)-6, (aS)-iso -6, and (aR)-iso -6 were submitted to the 60 Cell Screen panel and evaluated at 5 doses (100 μM, 10 μM, 1 μM, 0.1 μM, and 0.01 μM). […] The complete report from this submission is available at the publisher’s Web site as a separate Supporting Information file. For COMPARE analysis, TGI levels of response for (aR)-DM-MTC (6) and (aS)-iso-DM-MTC were compared to those of several established tubulin inhibitors previously tested in the NCI-60 screen.

MDA-MB-468 = system: MDA-MB-468
Procedure: as §1

HL-60(TB) = system: HL-60(TB)
Procedure: as §1

UACC-62 = system: UACC-62
Procedure: as §1

RPMI-8226 = system: RPMI-8226
Procedure: as §1

EKVX = system: EKVX
Procedure: as §1

A498 = system: A498
Procedure: as §1

PC-3 = system: PC-3
Procedure: as §1

OVCAR-8 = system: OVCAR-8
Procedure: as §1

SF-539 = system: SF-539
Procedure: as §1

RXF 393 = system: RXF 393
Procedure: as §1

MDA-MB-231/ATCC = system: MDA-MB-231/ATCC
Procedure: as §1

BT-549 = system: BT-549
Procedure: as §1

HCC-2998 = system: HCC-2998
Procedure: as §1

IGROV1 = system: IGROV1
Procedure: as §1

SW-620 = system: SW-620
Procedure: as §1

SK-MEL-5 = system: SK-MEL-5
Procedure: as §1

HT29 = system: HT29
Procedure: as §1

SR = system: SR
Procedure: as §1

MDA-MB-435 = system: MDA-MB-435
Procedure: as §1

SNB-75 = system: SNB-75
Procedure: as §1

NCI-H226 = system: NCI-H226
Procedure: as §1

OVCAR-4 = system: OVCAR-4
Procedure: as §1

T-47D = system: T-47D
Procedure: as §1

UO-31 = system: UO-31
Procedure: as §1

K-562 = system: K-562
Procedure: as §1

COc1cc(C)c(-c2ccc(=O)c(OC)cc2C)c(OC)c1OC (single isomer, unassigned) [(aR)-iso-6]
cytotoxicity at the highest concentration tested (NCI 60 cell lines; 100 μM): not cytotoxic | Log10 Range at TGI (NCI 60 cell lines; NCI-60 cell line selectivity): 0 | GI50 (NCI 60 cell lines; NCI-60 mean): > 100 µM | Mean TGI (NCI 60 cell lines; NCI-60 mean total growth inhibition): > 100 µM | Delta Log10LC50 (NCI 60 cell lines; mean graph): 0 | Delta Log10TGI (NCI 60 cell lines; mean graph): 0 | _MID Log10GI50 (NCI 60 cell lines; mean graph midpoint): -4.01 Molar | _MID Log10LC50 (NCI 60 cell lines; mean graph midpoint): -4.0 Molar | _MID Log10TGI (NCI 60 cell lines; mean graph midpoint): -4.0 Molar | Log10GI50 (MDA-MB-468): > -4.00 Molar | Log10LC50 (MDA-MB-468): > -4.00 Molar | Log10TGI (MDA-MB-468): > -4.00 Molar | Log10GI50 (HL-60(TB)): > -4.00 Molar | Log10LC50 (HL-60(TB)): > -4.00 Molar | Log10TGI (HL-60(TB)): > -4.00 Molar | Log10GI50 (UACC-62): > -4.00 Molar | Log10LC50 (UACC-62): > -4.00 Molar | Log10TGI (UACC-62): > -4.00 Molar | Log10GI50 (RPMI-8226): > -4.00 Molar | Log10LC50 (RPMI-8226): > -4.00 Molar | Log10TGI (RPMI-8226): > -4.00 Molar | Log10GI50 (EKVX): > -4.00 Molar | Log10LC50 (EKVX): > -4.00 Molar | Log10TGI (EKVX): > -4.00 Molar | Log10GI50 (A498): > -4.00 Molar | Log10LC50 (A498): > -4.00 Molar | Log10TGI (A498): > -4.00 Molar | Log10GI50 (PC-3): > -4.00 Molar | Log10LC50 (PC-3): > -4.00 Molar | Log10TGI (PC-3): > -4.00 Molar | Log10GI50 (OVCAR-8): > -4.00 Molar | Log10LC50 (OVCAR-8): > -4.00 Molar | Log10TGI (OVCAR-8): > -4.00 Molar | Log10GI50 (SF-539): > -4.00 Molar | Log10LC50 (SF-539): > -4.00 Molar | Log10TGI (SF-539): > -4.00 Molar | Log10GI50 (RXF 393): > -4.00 Molar | Log10LC50 (RXF 393): > -4.00 Molar | Log10TGI (RXF 393): > -4.00 Molar | Log10GI50 (MDA-MB-231/ATCC): > -4.00 Molar | Log10LC50 (MDA-MB-231/ATCC): > -4.00 Molar | Log10TGI (MDA-MB-231/ATCC): > -4.00 Molar | Log10GI50 (BT-549): > -4.00 Molar | Log10LC50 (BT-549): > -4.00 Molar | Log10TGI (BT-549): > -4.00 Molar | Log10GI50 (HCC-2998): > -4.00 Molar | Log10LC50 (HCC-2998): > -4.00 Molar | Log10TGI (HCC-2998): > -4.00 Molar | Log10GI50 (IGROV1): > -4.00 Molar | Log10LC50 (IGROV1): > -4.00 Molar | Log10TGI (IGROV1): > -4.00 Molar | Log10GI50 (SW-620): > -4.00 Molar | Log10LC50 (SW-620): > -4.00 Molar | Log10TGI (SW-620): > -4.00 Molar | Log10GI50 (SK-MEL-5): > -4.00 Molar | Log10LC50 (SK-MEL-5): > -4.00 Molar | Log10TGI (SK-MEL-5): > -4.00 Molar | Log10GI50 (HT29): > -4.00 Molar | Log10LC50 (HT29): > -4.00 Molar | Log10TGI (HT29): > -4.00 Molar | Log10GI50 (SR): > -4.00 Molar | Log10LC50 (SR): > -4.00 Molar | Log10TGI (SR): > -4.00 Molar | Log10GI50 (MDA-MB-435): > -4.00 Molar | Log10LC50 (MDA-MB-435): > -4.00 Molar | Log10TGI (MDA-MB-435): > -4.00 Molar | Log10GI50 (SNB-75): -4.40 Molar | Log10LC50 (SNB-75): > -4.00 Molar | Log10TGI (SNB-75): > -4.00 Molar | Log10GI50 (NCI-H226): > -4.00 Molar | Log10LC50 (NCI-H226): > -4.00 Molar | Log10TGI (NCI-H226): > -4.00 Molar | Log10GI50 (OVCAR-4): > -4.00 Molar | Log10LC50 (OVCAR-4): > -4.00 Molar | Log10TGI (OVCAR-4): > -4.00 Molar | Log10GI50 (T-47D): > -4.00 Molar | Log10LC50 (T-47D): > -4.00 Molar | Log10TGI (T-47D): > -4.00 Molar | Log10GI50 (UO-31): > -4.00 Molar | Log10LC50 (UO-31): > -4.00 Molar | Log10TGI (UO-31): > -4.00 Molar | Log10GI50 (K-562): > -4.00 Molar | Log10LC50 (K-562): > -4.00 Molar | Log10TGI (K-562): > -4.00 Molar
